Laboratory results as given in patent US20240252693A1, “FOLATE RECEPTOR-TARGETED RADIOTHERAPEUTIC AGENTS AND THEIR USE” (Novartis AG, priority 2021, published 2024).
“And” between values parts separate entries of the source, which are not always exact repeats. Equal entries are not always repeated. *1 amine or outer side, *2 acyl side, *3 side chain or, on linkers, in order; H or OH if unused. Where a SMILES comes first, the peptide text is derived from it. [ ]: non-standard residue; d: D form. The star is where a group is joined. NH(1-deoxy-D-glucityl) = OC[C@@H](O)[C@@H](O)[C@H](O)[C@@H](O)CN*; DOTA = O=C(O)CN1CCN(CC(=O)O)CCN(CC(=O)*)CCN(CC(=O)O)CC1; Pteroyl = Nc1nc2ncc(CNc3ccc(C(=O)*)cc3)nc2c(=O)[nH]1; γGlu = O=C(O)[C@H](CCC(=O)[*:2])N[*:1]; βAsp = O=C(O)[C@H](CC(=O)[*:2])N[*:1]; Dap = NC[C@H](N)C(=O)O

Tested on: KB tumor
Experiment: In vivo biodistribution in mice bearing KB tumors
Settings: 177Lu chelate, 200 nmol/kg

Compound	T/Kid	T/Liv	T/spl	T^2/kid
Nc1nc2ncc(CNc3ccc(C(=O)NCCCC[C@H](NC(=O)CNC(=O)CN4CCN(CC(=O)O)CCN(CC(=O)O)CCN(CC(=O)O)CC4)C(=O)O)cc3)nc2c(=O)[nH]1 [Compound 45, DOTA-Gly-Lys(Pte)-OH]	0.16 +/− 0.01	6.8 +/− 1.1	50.7 +/− 24.0	0.64 +/− 0.19
Nc1nc2ncc(CNc3ccc(C(=O)NCCCC[C@H](NC(=O)CN4CCN(CC(=O)O)CCN(CC(=O)O)CCN(CC(=O)O)CC4)C(=O)O)cc3)nc2c(=O)[nH]1 [Compound 46, DOTA-Lys(Pte)-OH]	0.19 +/− 0.03	6.3 +/− 1.9	66.9 +/− 30.8	0.84 +/− 0.32
Nc1nc2ncc(CNc3ccc(C(=O)N[C@@H](CC(=O)NCCCC[C@H](NC(=O)CNC(=O)CN4CCN(CC(=O)O)CCN(CC(=O)O)CCN(CC(=O)O)CC4)C(=O)O)C(=O)O)cc3)nc2c(=O)[nH]1 [Compound 51, Pte-Asp(DOTA-Gly-ε-Lys-OH)—OH]	0.32 +/− 0.09	11.0 +/− 2.3	54.8 +/− 11.3	1.35 +/− 0.54

Same assay, conditions: 225Ac chelate, 30 nmol/kg

T/Kid	T/Liv	T/spl	Compound
0.04 +/− 0.01	0.5 +/− 0.3	6.8 +/− 2.9	Nc1nc2ncc(CNc3ccc(C(=O)N[C@@H](CNC(=O)CN4CCN(CC(=O)O)CCN(CC(=O)O)CCN(CC(=O)O)CC4)C(=O)O)cc3)nc2c(=O)[nH]1 [Compound 3]
0.09 +/− 0.02	3.5 +/− 1.9	19.9 +/− 10.9	Nc1nc2ncc(CNc3ccc(C(=O)N[C@@H](CNC(=O)CCC(C(=O)O)N4CCN(CC(=O)O)CCN(CC(=O)O)CCN(CC(=O)O)CC4)C(=O)O)cc3)nc2c(=O)[nH]1 (some centres unmarked) [Compound 5]

Continued, molecule first:

Compound	T/Kid	T/Liv	T/spl
Nc1nc2ncc(CNc3ccc(C(=O)N[C@@H](CCC(=O)NC[C@H](N)C(=O)N[C@@H](CC(=O)O)C(=O)N[C@@H](CSC4CC(=O)N(CCNC(=O)CN5CCN(CC(=O)O)CCN(CC(=O)O)CCN(CC(=O)O)CC5)C4=O)C(=O)O)C(=O)O)cc3)nc2c(=O)[nH]1 (some centres unmarked) [Compound 25]	0.07 +/− 0.03	3.3 +/− 1.8	15.8 +/− 5.9
Nc1nc2ncc(CNc3ccc(C(=O)N[C@@H](CCCCNC(=O)[C@H](Cc4ccc5ccccc5c4)NC(=O)[C@H]4CC[C@H](CNC(=O)CCC(C(=O)O)N5CCN(CC(=O)O)CCN(CC(=O)O)CCN(CC(=O)O)CC5)CC4)C(=O)O)cc3)nc2c(=O)[nH]1 (some centres unmarked) [Compound 26]	0.08 +/− 0.02	3.3 +/− 1.1	20.4 +/− 5.6

Tested on: FR-positive M109 tumor
Experiment: In vivo biodistribution in mice bearing M109 tumors
Settings: 111In chelate, 100 nmol/kg
Excerpt: Four- to eight-week-old female nu/nu mice or NSG mice (Harlan Sprague-Dawley, Inc.) were maintained on a standard 12-h light-dark cycle and fed ad libitum with Folate deficient purified rodent diet (TestDiet #AIN-93G) for the duration of the experiment. FR-positive M109 or FR-negative HT29 tumor cells were inoculated in the subcutis dorsal medial area of mice. The biodistribution studies were typically performed when tumors were approximately 400-800 mm^3 in volume. Mice were divided into groups of three, and freshly prepared test articles and competitors were injected through the lateral tail vein in a volume of 100 μL/10 g of PBS. Four h to six days post radioactive-agent dose administration, mice were euthanized and organs (blood, heart, lungs, liver, spleen, and kidneys, intestine, stomach, muscle, brain and tumor) were collected, weighed and placed inside counting vials. Each tissue sample was counted for the activities of radioelement using a gamma-counter. Samples of the injectate were used as decay correction standards. Final bar graphs are expressed as % injected dose per gram of tissue or tumor to kidney ratio, or % tumor to (kidneys+liver+spleen) ratio.

Compound	T/Kid	T/Liv	T/spl	T^2/kid
Nc1nc2ncc(CNc3ccc(C(=O)N[C@@H](CC(=O)N[C@@H](CCC(=O)NC[C@H](O)[C@@H](O)[C@H](O)[C@H](O)CO)C(=O)N[C@@H](CCC(=O)NC[C@H](O)[C@@H](O)[C@H](O)[C@H](O)CO)C(=O)N[C@@H](CCC(=O)NC[C@H](O)[C@@H](O)[C@H](O)[C@H](O)CO)C(=O)N[C@@H](CNC(=O)CN4CCN(CC(=O)O)CCN(CC(=O)O)CCN(CC(=O)O)CC4)C(=O)O)C(=O)O)cc3)nc2c(=O)[nH]1 [Compound 11] ({Pteroyl-βAsp}-E(NH(1-deoxy-D-glucityl))E(NH(1-deoxy-D-glucityl))E(NH(1-deoxy-D-glucityl))[Dap](DOTA)-OH)	0.19 +/− 0.01	5.7 +/− 1.5	28.0 +/− 31^	1.0 +/− 0.14
Nc1nc2ncc(CNc3ccc(C(=O)N[C@@H](CCC(=O)N[C@@H](CCC(=O)NC[C@H](O)[C@@H](O)[C@H](O)[C@H](O)CO)C(=O)N[C@@H](CCC(=O)NC[C@H](O)[C@@H](O)[C@H](O)[C@H](O)CO)C(=O)N[C@@H](CCC(=O)NC[C@H](O)[C@@H](O)[C@H](O)[C@H](O)CO)C(=O)N[C@@H](CNC(=O)CN4CCN(CC(=O)O)CCN(CC(=O)O)CCN(CC(=O)O)CC4)C(=O)O)C(=O)O)cc3)nc2c(=O)[nH]1 [Compound 13] ({Pteroyl-γGlu}-E(NH(1-deoxy-D-glucityl))E(NH(1-deoxy-D-glucityl))E(NH(1-deoxy-D-glucityl))[Dap](DOTA)-OH)	0.22 +/− 0.06	6.4 +/− 1.5	31.9 +/− 7.6	1.7 +/− 1.1
Nc1nc(O)c2nc(CNc3ccc(C(=O)N[C@@H](CCC(=O)NCCNC(=O)CCC(C(=O)O)N4CCN(CC(=O)O)CCN(CC(=O)O)CCN(CC(=O)O)CC4)C(=O)O)cc3)cnc2n1 (some centres unmarked) [Compound 28]	0.098 +/− 0.003	1.2 +/− 0.1	2.1 +/− 0.3	0.03 +/− 0.001

Same assay, conditions: 177Lu chelate, 100 nmol/kg

Compound	T/Kid	T/Liv	T/spl	T^2/kid
Nc1nc2ncc(CNc3ccc(C(=O)N[C@@H](CNC(=O)CN4CCN(CC(=O)O)CCN(CC(=O)O)CCN(CC(=O)O)CC4)C(=O)O)cc3)nc2c(=O)[nH]1 [Compound 3]	0.30 +/− 0.04	0.93 +/− 0.15	10.6 +/− 1.8	1.6 +/− 0.4
Nc1nc2ncc(CNc3ccc(C(=O)N[C@@H](CNC(=O)CCC(C(=O)O)N4CCN(CC(=O)O)CCN(CC(=O)O)CCN(CC(=O)O)CC4)C(=O)O)cc3)nc2c(=O)[nH]1 (some centres unmarked) [Compound 5]	0.22 +/− 0.08 and 0.16 +/− 0.01 and 0.25 +/− 0.07		25.3 +/− 11.4 and 14.6 +/− 3.0 and 24.4 +/− 8.8	1.6 +/− 1.0 and 1.1 +/− 0.3 and 2.0 +/− 1.2
Nc1nc2ncc(CNc3ccc(C(=O)N[C@@H](CNC(=O)C[C@H](NC(=O)CN4CCN(CC(=O)O)CCN(CC(=O)O)CCN(CC(=O)O)CC4)C(=O)O)C(=O)O)cc3)nc2c(=O)[nH]1 [Compound 20]	0.21 +/− 0.01	4.6 +/− 2.1	16.4 +/− 1.9	1.5 +/− 0.3

Same assay, conditions: 177Lu chelate, 200 nmol/kg

Compound	T/Kid	T/Liv	T/spl	T^2/kid
CSCC[C@H](NC(=O)CN1CCN(CC(=O)O)CCN(CC(=O)O)CCN(CC(=O)O)CC1)C(=O)N[C@H](C(=O)N[C@@H](CCCCNC(=O)C[C@H](NC(=O)c1ccc(NCc2cnc3nc(N)[nH]c(=O)c3n2)cc1)C(=O)O)C(=O)O)C(C)C [Compound 54, Pte-Asp(DOTA-Met-Val-ε-Lys-OH)—OH]	0.23 +/− 0.03	9.0 +/− 0.9	56.4 +/− 6.2	0.76 +/− 0.12
Nc1nc2ncc(CNc3ccc(C(=O)N[C@@H](CNC(=O)CNC(=O)CN4CCN(CC(=O)O)CCN(CC(=O)O)CCN(CC(=O)O)CC4)C(=O)O)cc3)nc2c(=O)[nH]1 [Compound 68, Pte-Dap(Gly-DOTA)-OH]	0.29 +/− 0.08	10.1 +/− 3.2	55.6 +/− 17.1	1.37 +/− 0.73

Same assay, conditions: 177Lu chelate, 300 nmol/kg

T/Kid	T/Liv	T/spl	T^2/kid	Compound
0.46 +/− 0.03	10.5 +/− 2.9	69.9 +/− 7.9	1.28 +/− 0.11	Nc1nc2ncc(CNc3ccc(C(=O)N[C@@H](CCCCNC(=O)COc4ccc(C[C@H](NC(=O)CN5CCN(CC(=O)O)CCN(CC(=O)O)CCN(CC(=O)O)CC5)C(=O)O)cc4)C(=O)O)cc3)nc2c(=O)[nH]1 [Compound 38, Pte-Lys(DOTA-Tyr(O-carbonylmethyl)-OH)—OH]
0.58 +/− 0.10	13.0 +/− 3.7	70.2 +/− 6.7	1.57 +/− 0.53	Nc1nc2ncc(CNc3ccc(C(=O)N[C@@H](CCCCNC(=O)C[C@H](NC(=O)[C@H](Cc4ccc(Br)cc4)NC(=O)CNC(=O)CN4CCN(CC(=O)O)CCN(CC(=O)O)CCN(CC(=O)O)CC4)C(=O)O)C(=O)O)cc3)nc2c(=O)[nH]1 [Compound 43, Pte-Lys(β-Asp-4-Br-Phe-Gly-DOTA)-OH]
0.27 +/− 0.03	8.6 +/− 3.9	40.3 +/− 18.7	1.05 +/− 0.28	Nc1nc2ncc(CNc3ccc(C(=O)N[C@@H](Cc4ccc(OCC(=O)NCCNC(=O)CN5CCN(CC(=O)O)CCN(CC(=O)O)CCN(CC(=O)O)CC5)cc4)C(=O)O)cc3)nc2c(=O)[nH]1 [Compound 61, Pte-Tyr(OCH2CO-EDA-DOTA)-OH]
0.38 +/− 0.07	14.6 +/− 2.0	85.5 +/− 7.7	1.48 +/− 0.51	Nc1nc2ncc(CNc3ccc(C(=O)N[C@@H](Cc4ccc(OCCNC(=O)CN5CCN(CC(=O)O)CCN(CC(=O)O)CCN(CC(=O)O)CC5)cc4)C(=O)O)cc3)nc2c(=O)[nH]1 [Compound 64, Pte-Tyr(OCH2CH2—NH-DOTA)-OH]

The next lines start with the molecule.

Compound	T/Kid	T/Liv	T/spl	T^2/kid
Nc1nc2ncc(CNc3ccc(C(=O)N[C@@H](CCCCNC(=O)COc4ccc(C[C@H](NC(=O)COc5ccc(C[C@H](NC(=O)CN6CCN(CC(=O)O)CCN(CC(=O)O)CCN(CC(=O)O)CC6)C(=O)O)cc5)C(=O)O)cc4)C(=O)O)cc3)nc2c(=O)[nH]1 [Compound 39, Pte-Lys(DOTA-(Tyr(O-carbonylmethyl)-OH)2)—OH]	0.57 +/− 0.22	17.1 +/− 6.4	83.8 +/− 29.7	1.68 +/− 0.59
Nc1nc2ncc(CNc3ccc(C(=O)N[C@@H](CCCCNC(=O)C[C@H](NC(=O)[C@H](Cc4ccc5ccccc5c4)NC(=O)[C@H](Cc4ccc5ccccc5c4)NC(=O)CN4CCN(CC(=O)O)CCN(CC(=O)O)CCN(CC(=O)O)CC4)C(=O)O)C(=O)O)cc3)nc2c(=O)[nH]1 [Compound 42, Pte-Lys(β-Asp-2-Nal-2-Nal-DOTA)-OH]	0.49 +/− 0.16	17.3 +/− 4.9	84.4 +/− 10.4	1.64 +/− 0.62
CSCC[C@H](NC(=S)Nc1ccc(CC2CN(CC(=O)O)CCN(CC(=O)O)CCN(CC(=O)O)CCN2CC(=O)O)cc1)C(=O)N[C@H](C(=O)N[C@@H](CCCCN1C(=O)CC(SC[C@@H](NC(=O)[C@H](CC(=O)O)NC(=O)[C@H](CC(=O)O)NC(=O)[C@H](CCCNC(=N)N)NC(=O)[C@H](CC(=O)O)NC(=O)CC[C@H](NC(=O)c2ccc(NCc3cnc4nc(N)[nH]c(=O)c4n3)cc2)C(=O)O)C(=O)O)C1=O)C(=O)O)C(C)C (stereo partly drawn) [Compound 58, DOTA-Bn-NHC(S)NH-Met-Val-Lys(Mal-S-Cys-Asp-Asp-Arg-Asp-Folate)-OH]	0.59 +/− 0.12	28.8 +/− 2.9	83.1 +/− 17.3	0.59 +/− 0.16
